This note sets out measurements from patent US10632122B2, “Compositions and methods for treating toxoplasmosis, cryptosporidiosis and other apicomplexan protozoan related diseases” (University of Washington, priority 2015, dated 2020).

Data set [1] is described as follows: Rat PK following IV and PO dosing. The following applies: PO vs IV, rats.
For a further data set, the system named is N. caninum. The data set is described as follows: Mice experimentally infected with N. caninum. Details: species or system Balb/c mice. The following applies: mouse, in vivo.

For `CC(C)Cn1nc(-c2ccc3cc(OCC(C)(C)O)ccc3c2)c2c(N)ncnc21` [Example 33, 1-(6-(4-amino-1-isobutyl-1H-pyrazolo[3,4-d]pyrimidin-3-yl)naphthalen-2-yloxy)-2-methylpropan-2-ol], the bioavailability entry in data set [1] is listed as “essentially complete bioavailability”.
Regarding `CCOc1ccc2cc(-c3nn(CC4CCN(C)CC4)c4ncnc(N)c34)ccc2c1` [Compound 150], the “treatment of N. caninum infected mice” value with N. caninum was “treats infected mice and rids of N. caninum infection in brain and fetuses”.
